One data set concerns DU145. The data set can be described thus: Clonogenic assay (clonal expansion). The class given is cell-based. The settings on record: Homo sapiens, DU-145; Prostate Cancer (DU145), AR-; inhibition of clonal expansion. On the procedure: (§1) Cells were seeded at a density of 1-2×10^3 cells/well in a 6 well plate in RPMI 1640 supplemented with 10% FBS, penicillin (100 u/ml), streptomycin (100 u/ml), and L-glutamine (2 mM). Cells were treated with increasing concentrations of X15695 and cultured for 14 to 21 days. Medium and compounds were exchanged after 7 days. Cells were fixed with methanol/ acetic acid mixture (3:1 v/v) and the formation of colonies was visualized using 0.5% crystal violet (w/v) in 20% methanol (v/v). Plates were scanned in a conventional office scanner (Epson). The area covered by colonies was calculated using the ColonyArea Plugin for ImageJ.

The subject of a further data set is MCF-7. The data set can be described thus: Clonogenic assay (clonal expansion). It counts as cell-based. As to the method: as §1
Another data set concerns PC3. The data set can be described thus: Clonogenic assay (clonal expansion). To be noted: Homo sapiens; Prostate Cancer (PC3), AR-; inhibition of clonal expansion. The class given is cell-based. As to the method: as §1
The next data set deals with MDA-MB231. The data set can be described thus: Clonogenic assay (clonal expansion). The class given is cell-based. To be noted: Homo sapiens, MDA-MB-231; Breast Cancer (MDA-MB231), ER-; inhibition of clonal expansion. On the procedure: as §1
A further data set deals with TRMCF-7 cells. The data set can be described thus: Clonogenic assay (clonal expansion). It counts as cell-based. On the procedure: as §1
The subject of another data set is ERα. To be noted: MCF-7 cells, 1 µM for 24 h, then 100 µg/ml cycloheximide; > 120 min in the absence of X15695.
In data set [1] the test system is p53. The data set can be described thus: Immunofluorescence assay, cellular localization of p53. It counts as cell-based. To be noted: MCF-7 cells, 1 µM. As to the method: For immunofluorescence assay, MCF-7, T47D, 22Rv.1, LAPC-4 and LNCaP cells (10^4 each) were seeded on coverslips in a 24-well plate and the desired treatment applied. After three times washing with PBS, cells were fixed with 4% paraformaldehyde solution for 10 min at room temperature. Next, the cells were washed three times with PBS and permeabilized with 0.5% Triton X-100 for 10 min at room temperature. Following three additional washing steps with PBS, cells were treated with 5% bovine serum albumin (w/v) for 1 h at room temperature and subjected to overnight incubation with the primary antibody p53 (DO1 clone or Sp5, Thermo Fisher Scientific), ERα (F-10, Santa-Cruz) or mortalin (D-9, Santa-Cruz) and then washed three times with PBS followed by incubation with goat anti-mouse IgG, Alexa Fluor™ 488 antibody and/or goat anti-rabbit IgG, Alexa Fluor™ 546 antibody (Thermo Fisher Scientific) for 1 h at room temperature in the dark. All subsequent steps were performed in the dark. Cells were washed 3 times with PBS and stained with 0.1 µg/ml DAPI (Thermo Fisher Scientific) solution at 1:10,000 (v/v) dilution for 15 min at room temperature. After three times washing with PBS the cells were mounted in Mowiol® 4-88 on microscope slides and observed by laser-scanning confocal microscopy (Confocal Microscope platform […]6-LSM900, […], Germany).

Another data set concerns MCF-7 tumors. The data set can be described thus: Mouse xenograft experiment, MCF-7. The class given is in vivo. To be noted: MCF-7 xenograft. On the procedure:
MCF-7 and LAPC-4 cells (2×10^6) were suspended in 100 µl PBS: Matrigel (Corning NY USA, 1:1) and injected subcutaneously into both flanks of 6-7 weeks old female (for MCF-7 cells) and male (for LAPC-4 cells) athymic nude-Foxn1^nu mice (Envigo RMS GmbH, Düsseldorf, Germany). When tumor volumes were around 50 to100 mm^3, mice were randomized into four groups (7 mice per group) and treated daily by oral gavage as follows: (1) Control group (Vehicle) (corn oil, 1.0% dimethyl sulfoxide (DMSO) and (2) X15695 group, 30 mg per kg body weight) for the MCF-7 tumors or (1) Control group (Vehicle) (corn oil, 1.0% dimethyl sulfoxide (DMSO) (2) enzalutamide (Enza group, 15 mg per kg body weight), (3) X15695 group, 30 mg per kg body weight) and, (4) X15695 group (15 mg per kg body weight) for the LAPC-4 tumors. Body weight and tumor volumes were measured twice a week. Tumor volume was measured with a digital vernier caliper and calculated using the formula vol = length × width × height × 0.5236 and recorded or calculated relative to the starting volume which was nominally set at 100%. After 16 days for the MCF-7 tumors or 42 days for the LAPC-4 tumors, mice were sacrificed and the tumors removed, photographed, and weighed. Percent body weight change was calculated using the following formula: group percent weight change = [(new weight - initial weight)/initial weight] × 100]. Tumors were snap-frozen and stored for Western blot analysis.

The test system of the next data set is AR. Nature of the data set: Western blot of AR level in prostate cancer cells. It counts as cell-based. To be noted: LNCaP and 22Rv.1 cells, 24 h. A general note: Immunoblotting shows a protein as a band on a membrane.
For data set [2], the system named is TRMCF-7 cells (tamoxifen resistant MCF-7 cells). The data set can be described thus: MTT cell viability assay. The class given is cell-based. The settings on record: 48 h. As to the method:
[…] Cells transfected with siRNA were incubated for 72 h after X15695 addition. Thereafter, the medium was exchanged for a fresh medium containing 0.5 mg/ml MTT (Sigma-Aldrich) and incubated at 37°C for 1 h to 4 h (depending on cell line) until intracellular purple formazan crystals were formed. The MTT solution was removed, and the purple crystals were dissolved in isopropanol and the optical absorbance at 595 nm was recorded using SpectraMax iD3, Molecular Devices, San Jose, CA, USA.
Background: Tetrazolium dyes change colour on reduction, which living cells bring about.

Data set [3] relates to p53. Nature of the data set: Western blot of p53 level in breast cancer cells. The class given is cell-based. To be noted: 48 h.
Protocol: For Western blotting, cells were lysed in NP-40 lysis buffer (1% NP-40, 50 mM Tris-HCl, pH 8.0, 150 mM NaCl, 5 mM EDTA) or 1× passive lysis buffer (Promega, Germany) for 15 min on ice. Cell debris was removed by centrifugation at 13,000 rpm for 10 min and used for SDS-polyacrylamide gel electrophoresis (PAGE) and Western blotting.
Western Blotting was carried out using standard protocols with antibodies: p53 (clone DO1), p53 (Sp5, Thermo Fisher Scientific Karlsruhe, Germany), Mdm2 (4B2, Abcam, Cambridge, UK). […] Secondary goat anti-mouse and goat anti-rabbit antibodies were purchased from DAKO (Bollschweil, Germany).
[4] abbreviates: 30 mg/kg body weight per os daily.
[5] abbreviates: Western blot after the treatment period.

Protocol for ERα: Thereafter, cells were incubated with the protein synthesis inhibitor cycloheximide (100 µg/ml) and harvested at time points 0, 30, 60, 90 and 120 min. Cells were lysed and used for Western blotting to determine the ERα level at each time point.

As a reminder, the IC50 is the concentration that gives 50% inhibition. For the compound `Fc1ccc(-c2cn3cc(C(F)(F)F)cc(Cl)c3n2)cc1` [Compound X15695, 8-Chloro-2-(4-fluorophenyl)-6-(trifluoromethyl)imidazo[1,2-a]pyridine], the IC50 with DU145 came to 1340 nM; in the data set on MCF-7 (Homo sapiens, MCF7, Breast Cancer (MCF-7), ER+, inhibition of clonal expansion), 3.5 ± 1.7 nM; in the data set on PC3 it was 2040 nM; in the data set on MDA-MB231, 5540 nM. In the data set with MCF-7 (MCF-7 cells, compared with HeLa, A549 and U2OS), the “effect on clonal expansion” value is “dose-dependently inhibited the clonal expansion”. The “inhibition of clonal expansion” value in the data set with TRMCF-7 cells was “active”. Moreover, the ERα half-life result with ERα is “about 60 min”. The “cellular localization of p53” value in the data set with p53 [1] is “accumulated in the nucleus as early as 8 h after X15695 treatment”. Moreover, the tumor volume entry in the data set with MCF-7 tumors (setting [4]) was “significant decrease”. The tumor weight result with MCF-7 tumors (setting [4]) is on record as “significant decrease”. In the data set on MCF-7 tumors (30 mg/kg body weight per os daily, 16 days), the “tolerability, body weight” value was “well tolerated and did not cause any weight loss or other signs of host toxicity”. Besides, the “ERα level in tumor lysates” value with MCF-7 tumors (setting [5]) is reported as “significant decrease in ERα level”. The “p53 expression in tumor lysates” value in the data set on MCF-7 tumors (setting [5]) is “increase in p53 expression”. Also, the AR level result in the data set with AR is “did not strongly downregulate AR level”. In data set [2], the inhibition of viability result was “comparable activities”. The results for the p53 level entry with p53 [3] (MCF-7 cells (wild-type p53)) and in the data set on p53 [3] (T47D cells (mutated p53 L194F)) were “significantly increased” and “not in T47D cells”, respectively.

Values taken from patent EP4417202A1, “ANTI-CANCER ACTION OF BAG1-SELECTIVE IMIDAZOPYRIDINE COMPOUNDS IN STEROID HORMONE RECEPTOR-POSITIVE BREAST AND PROSTATE CANCER” (Karlsruher Institut für Technologie, priority 2023, dated 2024).
